Experimental findings from US20020026052A1, “3-cyanoquinolines, 3-cyano-1,6-naphthyridines, and 3-cyano-1,7-naphthyridines as protein kinase inhibitors” (American Home Products Corporation, priority 2000, published 2002) are described below.

In data set [1] the target is Rat2 fibroblasts stably transformed with v-Src/Hu c-Src fusion gene (Homo sapiens, UniProt P12931, cells depend on it, form not given). The data set can be described thus: Anchorage Independent Src-transformed Fibroblast Proliferation Assay. Format: cell-based, Rat. As to conditions: suspension growth, MTS reagent on Day 5; read-out: anch-indep src-tx fib IC50. As to the method:
Anchorage Independent Src-transformed Fibroblast Proliferation Assay
Rat2 fibroblasts stably transformed with a plasmid containing a CMV promotor controlled v-Src/Hu c-Src fusion gene in which the catalytic domain of human c-Src was inserted in place of the v-Src catalytic domain in the v-Src gene are used for the measurement of src dependent suspension growth. […] Multiple entries for a given compound indicate that it was tested multiple times.
For orientation: Formazan colour is commonly taken as a measure of viable cells.

The structures appear in SMILES notation. Where “and” joins values, the source holds several entries; their conditions need not be identical. Equal entries are not always repeated.

Rat2 fibroblasts stably transformed with v-Src/Hu c-Src fusion gene, sequence (P12931 whole entry, change not shown, the tested form may be a part): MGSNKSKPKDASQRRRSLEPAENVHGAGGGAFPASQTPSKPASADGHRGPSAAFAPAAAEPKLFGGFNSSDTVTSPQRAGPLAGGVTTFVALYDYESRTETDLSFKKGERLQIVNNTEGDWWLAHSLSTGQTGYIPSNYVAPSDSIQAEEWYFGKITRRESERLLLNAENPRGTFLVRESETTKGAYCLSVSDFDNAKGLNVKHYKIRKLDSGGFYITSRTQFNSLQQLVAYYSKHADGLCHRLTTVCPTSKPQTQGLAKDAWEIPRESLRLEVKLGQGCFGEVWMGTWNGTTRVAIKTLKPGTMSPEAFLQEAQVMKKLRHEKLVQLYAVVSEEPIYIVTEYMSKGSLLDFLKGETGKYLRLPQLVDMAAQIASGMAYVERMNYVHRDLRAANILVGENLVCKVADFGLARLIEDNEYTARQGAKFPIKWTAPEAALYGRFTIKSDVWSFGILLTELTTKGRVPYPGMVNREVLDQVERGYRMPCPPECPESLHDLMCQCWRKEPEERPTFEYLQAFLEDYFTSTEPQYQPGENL

With `N#Cc1cnc2cc(-c3cc(CN4CCOCC4)c(CN4CCOCC4)s3)ccc2c1Nc1ccc(Cl)cc1Cl` [Example 17], the melting point (in general, the temperature, or range, at which the solid turns liquid) is 118 to 125 °C. Further, in data set [1], the GI50 turned out to be 310 nM.
`COc1cc(Nc2c(C#N)cnc3cc(-c4cc(CN5CCOCC5)c(CN5CCOCC5)s4)ccc23)c(Cl)cc1Cl` [Example 20, 7-[4,5-Bis(4-morpholinylmethyl)-2-thienyl]-4-(2,4-dichloro-5-methoxyanilino)-3-quinolinecarbonitrile] displayed a melting point of 118 to 125 °C. Besides, in data set [1], the GI50 is 40 nM and 30 nM.
`COc1cc(Nc2c(C#N)cnc3cc(-c4ccc(CCCCN5CCOCC5)s4)ccc23)c(Cl)cc1Cl` [Example 22, 4-(2,4-Dichloro-5-methoxyanilino)-7-{5-[4-(4-morpholinyl)butyl]-2-thienyl}-3-quinolinecarbonitrile]: the melting point was 188 °C (dec.). Also, the GI50 in data set [1] came to 600 nM.
As to `N#Cc1cnc2cc(-c3csc(CN4CCOCC4)c3)ccc2c1Nc1ccc(Cl)cc1Cl` [Example 25, 4-(2,4-Dichloroanilino)-7-[5-(4-morpholinylmethyl)-3-thienyl]-3-quinolinecarbonitrile], the melting point is 203 to 205 °C. In addition, the GI50 in data set [1] was 1300 nM and 930 nM.
In the case of `COc1cc(Nc2c(C#N)cnc3cc(-c4csc(CN5CCOCC5)c4)c(OC)cc23)c(Cl)cc1Cl` [Example 36, 4-(2,4-Dichloro-5-methoxyanilino)-6-methoxy-7-[5-(4-morpholinylmethyl)-3-thienyl]-3-quinolinecarbonitrile], the melting point was in the range of 148 to 150 °C. Besides, in data set [1], the GI50 is 160 nM and 200 nM.
`COc1cc(Nc2c(C#N)cnc3cc(-c4ccc(CN5CCC[C@@H]5C(N)=O)o4)ccc23)c(Cl)cc1Cl` [Example 47, (2 R)-1-({5-[3-cyano-4-(2,4-dichloro-5-methoxyanilino)-7-quinolinyl]-2-furyl}methyl)-2-pyrrolidinecarboxamide]: the melting point was in the range of 121 to 126 °C. Further, in data set [1], the GI50 amounted to 1170 nM.
Turning to `COc1cc(Nc2c(C#N)cnc3cc(-c4ccc(C5OCCO5)s4)ccc23)c(Cl)cc1Cl` [Example 51, 4-(2,4-dichloro-5-methoxyanilino)-7-[5-(1,3-dioxolan-2-yl)-2-thienyl]-3-quinolinecarbonitrile], the melting point was 174 to 177 °C (dec.). The GI50 in data set [1] is 420 nM.
For `COc1cc(Nc2c(C#N)cnc3cc(-c4ccc(CN5CCOCC5)o4)ccc23)c(Cl)cc1Cl` [Example 53, 4-(2,4-Dichloro-5-methoxyanilino)-7-[5-(4-morpholinylmethyl)-2-furyl]-3-quinolinecarbonitrile], in that order: 182 to 183 °C and 250 nM.
For `COc1ccc(/C=C/c2ccc3c(Nc4cc(OC)c(Cl)cc4Cl)c(C#N)cnc3c2)cc1` [Example 54, 4-(2,4-Dichloro-5-methoxyanilino)-7-[(E)-2-(4-methoxyphenyl)ethenyl]-3-quinolinecarbonitrile], in that order: 216 to 220 °C and more than 10000 nM.
In the case of `COc1cc(Nc2c(C#N)cnc3cc(-c4ccc(CNCCS(=O)(=O)c5ccccc5)o4)ccc23)c(Cl)cc1Cl` [Example 58, 4-(2,4-Dichloro-5-methoxyanilino)-7-[5-({[2-(phenylsulfonyl)ethyl]amino}methyl)-2-furyl]-3-quinolinecarbonitrile], the melting point lay within 123 to 128 °C. Moreover, in data set [1], the GI50 turned out to be 5100 nM.
Regarding `COc1cc(Nc2c(C#N)cnc3cc(-c4cncn4CCN4CCOCC4)ccc23)c(Cl)cc1Cl` [Example 64, 4-(2,4-Dichloro-5-methoxyanilino)-7-{1-[2-(4-morpholinyl)ethyl]-lH-imidazol-5-yl}-3-quinolinecarbonitrile], the melting point was 150 °C (dec.). Also, the GI50 in data set [1] is more than 10000 nM.
As for `COc1cc(Nc2c(C#N)cnc3cc(-c4ccc(N5CCOCC5)cc4)ccc23)c(Cl)cc1Cl` [Example 67, 4-(2,4-Dichloro-5-methoxyanilino)-7-[4-(4-morpholinyl)phenyl]-3-quinolinecarbonitrile], the melting point is 235 to 237 °C. In data set [1], the GI50 was determined as 110 nM.
